# In patent US20210322508A1, “PEPTIDES AND COMPOSITIONS FOR TARGETED TREATMENT AND IMAGING” (SIGNABLOK, INC., priority 2018, published 2021):
# Residues, ends and D or L forms follow the SMILES beside them.
# Assays:
# [1] = penetration of the blood-brain and blood-retinal barrier after systemic administration; assay type: in vivo; details: rhodamine B-labeled; mice intraperitoneally; rats and rabbits intravenously (G-KV21)
# [2] = test system: human pancreatic cancer xenografts (cancer mice); details: mouse, in vivo
# Procedure: Treatment persisted for 31, 29 and 29 days for mice containing AsPC-1, BxPC-3 and Capan-1 tumor xenografts, respectively. Mean tumor volumes are calculated and plotted. All results are expressed as the mean±SEM (n=6 mice per group). On the final day of treatment, tumor volumes were compared between the drug-treated and control groups. **, p<0.01; ***, p<0.001; ****, p<0.0001 (versus vehicle).
# [3] = Crossing of blood-retinal and blood-brain barrier (rho B-labeled); details: mouse, in vivo
# Procedure: Litters of C57BL/6J (Jackson Laboratory, Bar Harbor, Me.) neonatal mice and nursing dams were exposed to a hyperoxia environment (75% oxygen) from postnatal day 7 (P7) to P12 and returned to normoxia until P17. The hyperoxia exposure causes degeneration of the immature retinal vessels. […] Beginning on P7, mice were treated until day P17 by daily i.p. injections of GF9, GF9-SLP, TREM-1/TRIOPEP-sSLP or vehicle (phosphate-buffered saline, pH 7.4; PBS). […] In another subset of experiments, rho B-labeled Gd-containing sSLP were used to confirm the ability of these targeted SLP to cross the BRB in other species (rats and rabbits). In another subset of experiments, neonatal mice and nursing dams were not subjected to a hyperoxia environment and reared in room air (RA). At P17, all mice were humanely sacrificed and their retinas were collected.
# Litters of C57BL/6J (Jackson Laboratory, Bar Harbor, Me.) neonatal mice and nursing dams were exposed to a hyperoxia environment (75% oxygen) from postnatal day 7 (P7) to P12 and returned to normoxia until P17. The hyperoxia exposure causes degeneration of the immature retinal vessels. […] Beginning on P7, mice were treated until day P17 by daily i.p. injections of G-KV21, G-TE21 at indicated doses or vehicle (PBS, pH 7.4). In certain embodiments, neonatal mice and nursing dams were not subjected to a hyperoxia environment and reared in room air. […]
# [4] = test system: intratumoral macrophages (F4/80); test: Immunohistochemistry of intratumoral macrophages (F4/80) in PC xenografts; assay type: in vivo, mouse; details: PC xenografts (shown for BxPC-3)
# Procedure: All staining and quantification procedures were performed by HistoTox Laboratories. Briefly, mice containing AsPC-1, BxPC-3, and Capan-1 tumors were humanely euthanized for necropsy at the end of the study. Excised tumors were fixed using 10% neutral buffered formalin for 1-2 days, processed for paraffin embedding, and sectioned at […]. Antigen retrieval for F4/80 was achieved using Proteinase K (Dako North America). Sections were blocked for peroxidase and alkaline phosphatase activity using Dual Endogenous Enzyme Block (Dako North America). Sections were then incubated with Protein Block (Dako North America) followed by primary antibody F4/80 (1:2000, AbD Serotec) diluted using 1% bovine serum albumin in Tris-buffered saline. […] Quantitative analysis of intratumoral F4/80 staining was determined using Visiopharm software.
# Mice containing BxPC-3 tumors were humanely euthanized for necropsy at the end of the study. […] Quantitative analysis of intratumoral F4/80 staining was determined using Visiopharm software.
# Immunohistochemistry. All staining and quantification procedures were performed by HistoTox Labs. […] Quantitative analysis of intratumoral F4/80 staining was determined using Visiopharm software.
smiles,measurement,setting,value
CC(C)C[C@H](NC(=O)[C@H](Cc1ccccc1)NC(=O)CN)C(=O)N[C@@H](CO)C(=O)N[C@@H](CCCCN)C(=O)N[C@@H](CO)C(=O)N[C@@H](CC(C)C)C(=O)N[C@H](C(=O)N[C@@H](Cc1ccccc1)C(=O)N[C@@H](Cc1c[nH]c2ccccc12)C(=O)N[C@@H](CCC(N)=O)C(=O)N[C@@H](CCC(=O)O)C(=O)N[C@@H](CCC(=O)O)C(=O)N[C@@H](CC[S+](C)[O-])C(=O)N[C@@H](CCC(=O)O)C(=O)N[C@@H](CC(C)C)C(=O)N[C@@H](Cc1ccc(O)cc1)C(=O)N[C@@H](CCCNC(=N)N)C(=O)N[C@@H](CCC(N)=O)C(=O)N[C@@H](CCCCN)C(=O)N[C@H](C(=O)O)C(C)C)C(C)C (stereo partly shown) [G-KV21] (HELM PEPTIDE1{G.F.L.S.K.S.L.V.F.W.Q.E.E.[CS(=O)CC[C@H](N[*:1])C(=O)[*:2]].E.L.Y.R.Q.K.V}$$$$V2.0),penetration of the BBB and BRB,[1],penetration of the BBB and BRB
CC(C)C[C@H](NC(=O)[C@H](Cc1ccccc1)NC(=O)CN)C(=O)N[C@@H](CO)C(=O)N[C@@H](CCCCN)C(=O)N[C@@H](CO)C(=O)N[C@@H](CC(C)C)C(=O)N[C@H](C(=O)N[C@@H](Cc1ccccc1)C(=O)O)C(C)C [GF9] (H-GFLSKSLVF-OH),tolerability in cancer mice,[2],Non-Toxic
same,passage of blood-retinal barrier (BRB) and blood-brain barrier (BBB),[3],pass the blood-retinal barrier (BRB) and blood-brain barrier (BBB)
CC(C)C[C@H](NC(=O)[C@H](Cc1ccccc1)NC(=O)CN)C(=O)N[C@@H](CO)C(=O)N[C@@H](CCCCN)C(=O)N[C@@H](CO)C(=O)N[C@@H](CC(C)C)C(=O)N[C@H](C(=O)N[C@@H](Cc1ccccc1)C(=O)NCC(=O)N[C@@H](CCC(=O)O)C(=O)N[C@@H](CCC(=O)O)C(=O)N[C@@H](CC[S+](C)[O-])C(=O)N[C@@H](CCCNC(=N)N)C(=O)N[C@@H](CC(=O)O)C(=O)N[C@@H](CCCNC(=N)N)C(=O)N[C@@H](C)C(=O)N[C@@H](CCCNC(=N)N)C(=O)N[C@@H](C)C(=O)N[C@@H](Cc1c[nH]cn1)C(=O)N[C@H](C(=O)O)C(C)C)C(C)C (stereo partly shown) [G-HV21] (HELM PEPTIDE1{G.F.L.S.K.S.L.V.F.G.E.E.[CS(=O)CC[C@H](N[*:1])C(=O)[*:2]].R.D.R.A.R.A.H.V}$$$$V2.0),intratumoral macrophage content / infiltration (F4/80),[4],reduces the macrophage infiltration into the tumor
